We go through 15 compounds from patent publication US10538495B2, “Modulators of indoleamine 2,3-dioxygenase” (GLAXOSMITHKLINE INTELLECTUAL PROPERTY DEVELOPMENT LIMITED, priority 2016, dated 2020).

The target of assay [1] is T1, indoleamine 2,3-dioxygenase (IDO1) (Homo sapiens, UniProt P14902). The assay is described as follows: PBMC IDOi assay (kynurenine by mass spectrometry). Format: cell-based. The settings on record: IFN-γ and LPS stimulated human PBMC, 2 days, kynurenine detected by mass spectrometry; read-out: PBMC pIC50 (converted). The protocol:
(§1) Brief descriptions of the cellular assays are provided following the table.
(§2) Compounds of the present invention were tested via high-throughput cellular assays utilizing detection of kynurenine via mass spectrometry and cytotoxicity as end-points. For the mass spectrometry and cytotoxicity assays, human peripheral blood mononuclear cells (PBMC) (PB003F; AllCells®, Alameda, Calif.) were stimulated with human interferon-γ (IFN-γ) (Sigma-Aldrich Corporation, St. Louis, Mo.) and lipopolysaccharide from Salmonella minnesota (LPS) (Invivogen, San Diego, Calif.) to induce the expression of indoleamine 2,3-dioxygenase (IDO1). Compounds with IDO1 inhibitory properties decreased the amount of kynurenine produced by the cells via the tryptophan catabolic pathway. Cellular toxicity due to the effect of compound treatment was measured using CellTiter-Glo® reagent (CTG) (Promega Corporation, Madison, Wis.), which is based on luminescent detection of ATP, an indicator of metabolically active cells.
(§3) In preparation for the assays, test compounds were serially diluted 3-fold in DMSO from a typical top concentration of 5 mM and plated at 0.5 μL in 384-well, polystyrene, clear bottom, tissue culture treated plates with lids (Greiner Bio-One, Kremsmünster, Austria) to generate 11-point dose response curves. Low control wells (0% kynurenine or 100% cytotoxicity) contained either 0.5 μL of DMSO in the presence of unstimulated (−IFN-γ/−LPS) PBMCs for the mass spectrometry assay or 0.5 μL of DMSO in the absence of cells for the cytotoxicity assay, and high control wells (100% kynurenine or 0% cytotoxicity) contained 0.5 μL of DMSO in the presence of stimulated (+IFN-γ/+LPS) PBMCs for both the mass spectrometry and cytotoxicity assays.
Frozen stocks of PBMCs were washed and recovered in RPMI 1640 medium (Thermo Fisher Scientific, Inc., Waltham, Mass.) supplemented with 10% v/v heat-inactivated fetal bovine serum (FBS) (Thermo Fisher Scientific, Inc., Waltham, Mass.), and 1× penicillin-streptomycin antibiotic solution (Thermo Fisher Scientific, Inc., Waltham, Mass.). The cells were diluted to 1,000,000 cells/mL in the supplemented RPMI 1640 medium. 50 μL of either the cell suspension, for the mass spectrometry assay, or medium alone, for the cytotoxicity assay, were added to the low control wells, on the previously prepared 384-well compound plates, resulting in 50,000 cells/well or 0 cells/well respectively. IFN-γ and LPS were added to the remaining cell suspension at final concentrations of 100 ng/ml and 50 ng/ml respectively, and 50 μL of the stimulated cells were added to all remaining wells on the 384-well compound plates. The plates, with lids, were then placed in a 37° C., 5% CO2 humidified incubator for 2 days.
Following incubation, the 384-well plates were removed from the incubator and allowed to equilibrate to room temperature for 30 minutes. For the cytotoxicity assay, CellTiter-Glo® was prepared according to the manufacturer's instructions, and 40 μL were added to each plate well. After a twenty minute incubation at room temperature, luminescence was read on an EnVision® Multilabel Reader (PerkinElmer Inc., Waltham, Mass.). For the mass spectrometry assay, 10 μL of supernatant from each well of the compound-treated plates were added to 40 μL of acetonitrile, containing 10 μM of an internal standard for normalization, in 384-well, polypropylene, V-bottom plates (Greiner Bio-One, Kremsmünster, Austria) to extract the organic analytes. Following centrifugation at 2000 rpm for 10 minutes, 10 μL from each well of the acetonitrile extraction plates were added to 90 μL of sterile, distilled H2O in 384-well, polypropylene, V-bottom plates for analysis of kynurenine and the internal standard on the RapidFire 300 (Agilent Technologies, Santa Clara, Calif.) and 4000 QTRAP MS (SCIEX, Framingham, Mass.). […]

Assay [2] addresses T1, indoleamine 2,3-dioxygenase (IDO1). The experiment in a line: HeLa IDOi assay (kynurenine by mass spectrometry). Format: cell-based. More on the design: human epithelial HeLa cells (CCL-2; host or cells: HeLa cells stimulated with human IFN-γ. The settings on record: IFN-γ stimulated HeLa cells, 2 days, kynurenine detected by mass spectrometry; read-out: HeLa pIC50 (converted). As to the method:
as §1
as §2, with “epithelial HeLa” for “peripheral blood mononuclear”, “(CCL-2; ATCC®, Manassas, Va.)” for “(PBMC) (PB003F; AllCells®, Alameda, Calif.)”, “Mo.)” for “Mo.) and lipopolysaccharide from Salmonella minnesota (LPS) (Invivogen, San Diego, Calif.)”
as §3, with “(−IFN-γ) HeLa cells” for “(−IFN-γ/−LPS) PBMCs”, “(+IFN-γ) HeLa cells” for “(+IFN-γ/+LPS) PBMCs”
Frozen stocks of HeLa cells were washed and recovered in DMEM high glucose medium with HEPES (Thermo Fisher Scientific, Inc., Waltham, Mass.) supplemented with 10% v/v certified fetal bovine serum (FBS) (Thermo Fisher Scientific, Inc., Waltham, Mass.), and 1× penicillin-streptomycin antibiotic solution (Thermo Fisher Scientific, Inc., Waltham, Mass.). The cells were diluted to 100,000 cells/mL in the supplemented DMEM medium. 50 μL of either the cell suspension, for the mass spectrometry assay, or medium alone, for the cytotoxicity assay, were added to the low control wells, on the previously prepared 384-well compound plates, resulting in 5,000 cells/well or 0 cells/well respectively. IFN-γ was added to the remaining cell suspension at a final concentration of 10 nM, and 50 μL of the stimulated cells were added to all remaining wells on the 384-well compound plates. The plates, with lids, were then placed in a 37° C., 5% CO2 humidified incubator for 2 days.
Following incubation, the 384-well plates were removed from the incubator and allowed to equilibrate to room temperature for 30 minutes. For the cytotoxicity assay, CellTiter-Glo® was prepared according to the manufacturer's instructions, and 10 μL were added to each plate well. After a twenty minute incubation at room temperature, luminescence was read on an EnVision® Multilabel Reader (PerkinElmer Inc., Waltham, Mass.). For the mass spectrometry assay, 10 μL of supernatant from each well of the compound-treated plates were added to 40 μL of acetonitrile, containing 10 μM of an internal standard for normalization, in 384-well, polypropylene, V-bottom plates (Greiner Bio-One, Kremsmünster, Austria) to extract the organic analytes. Following centrifugation at 2000 rpm for 10 minutes, 10 μL from each well of the acetonitrile extraction plates were added to 90 μL of sterile, distilled H2O in 384-well, polypropylene, V-bottom plates for analysis of kynurenine and the internal standard on the RapidFire 300 (Agilent Technologies, Santa Clara, Calif.) and 4000 QTRAP MS (SCIEX, Framingham, Mass.). MS data were integrated using Agilent Technologies' RapidFire Integrator software, and data were normalized for analysis as a ratio of kynurenine to the internal standard. […]

Molecules are shown by their SMILES.

T1 sequence (P14902 whole entry): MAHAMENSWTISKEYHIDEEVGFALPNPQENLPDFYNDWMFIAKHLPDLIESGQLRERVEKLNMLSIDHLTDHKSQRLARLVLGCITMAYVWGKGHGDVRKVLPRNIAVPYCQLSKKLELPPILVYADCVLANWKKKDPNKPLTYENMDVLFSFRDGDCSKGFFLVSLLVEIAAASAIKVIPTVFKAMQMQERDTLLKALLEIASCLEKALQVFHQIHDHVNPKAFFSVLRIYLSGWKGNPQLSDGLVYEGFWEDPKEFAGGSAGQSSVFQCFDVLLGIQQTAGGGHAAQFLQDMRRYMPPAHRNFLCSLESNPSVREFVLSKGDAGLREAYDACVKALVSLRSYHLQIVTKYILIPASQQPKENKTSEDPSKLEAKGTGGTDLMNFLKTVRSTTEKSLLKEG

`CC(C)(C)Sc1ccc(-c2ccccc2-c2nn[nH]n2)cc1NC(=O)Cc1ccc(Cl)cc1` [Example 34, N-(4-(tert-butylthio)-2′-(2H-tetrazol-5-yl)-[1,1′-biphenyl]-3-yl)-2-(4-chlorophenyl)acetamide]: the IC50 in assay [1] was 25.1 nM; in assay [2] it was 79.4 nM.

As to `Cc1ccc(OC(=O)Nc2cc(-c3ccccc3-c3nn[nH]n3)ccc2SC(C)(C)C)cc1` [Example 35, p-Tolyl (4-(tert-butylthio)-2′-(2H-tetrazol-5-yl)-[1,1′-biphenyl]-3-yl)carbamate], the IC50 in assay [1] is 1580 nM; in assay [2], greater than 3160 nM.

Regarding `CC(C)(C)Sc1ccc(-c2ccccc2-c2nn[nH]n2)cc1NC(=O)c1ccccc1` [Example 36, N-(4-(tert-butylthio)-2′-(2H-tetrazol-5-yl)-[1,1′-biphenyl]-3-yl)benzamide], the IC50 in assay [1] is 1260 nM; in assay [2], 2510 nM.

`Cc1ccc(CCC(=O)Nc2cc(-c3ccccc3-c3nn[nH]n3)ccc2SC(C)(C)C)cc1` [Example 37, N-(4-(tert-butylthio)-2′-(2H-tetrazol-5-yl)-[1,1′-biphenyl]-3-yl)-3-(p-tolyl)propanamide]: the IC50 was 251 nM in assay [1] and 794 nM in assay [2].

Consider `Cc1cc(C)c(CC(=O)Nc2cc(-c3ccccc3-c3nn[nH]n3)ccc2SC(C)(C)C)c(C)c1` [Example 39, N-(4-(tert-butylthio)-2′-(2H-tetrazol-5-yl)-[1,1′-biphenyl]-3-yl)-2-mesitylacetamide], for which the IC50 was 1.58 nM in assay [1] and 2.51 nM in assay [2].

Regarding `CC(C)(C)Sc1ccc(-c2ccccc2-c2nn[nH]n2)cc1NC(=O)Cc1ccc(Br)cc1` [Example 40, 2-(4-Bromophenyl)-N-(4-(tert-butylthio)-2′-(2H-tetrazol-5-yl)-[1,1′-biphenyl]-3-yl)acetamide], the IC50 in assay [1] was 20 nM; in assay [2] it was 31.6 nM.

Take `CC(C)(C)Sc1ccc(-c2ccccc2-c2nn[nH]n2)cc1Nc1nc(C(F)(F)F)ns1` [Example 43, N-(4-(tert-butylthio)-2′-(2H-tetrazol-5-yl)-[1,1′-biphenyl]-3-yl)-3-(trifluoromethyl)-1,2,4-thiadiazol-5-amine]: the figures for the IC50 in assay [1] and in assay [2] were 12.6 nM and 50.1 nM, respectively.

Regarding `Cc1ccc(CC(=O)Nc2cc(-c3ccccc3C#N)ccc2SC(C)(C)C)cc1` [Example 46, N-(4-(tert-butylthio)-2′-cyano-[1,1′-biphenyl]-3-yl)-2-(p-tolyl)acetamide], the IC50 in assay [1] is 5010 nM; in assay [2] it was 6310 nM.

In the case of `Cc1ccc(CC(=O)Nc2cc(-c3ccccc3C(N)=O)ccc2SC(C)(C)C)cc1` [Example 47, 4′-(tert-Butylthio)-3′-(2-(p-tolyl)acetamido)-[1,1′-biphenyl]-2-carboxamide], the IC50 in assay [1] and in assay [2] was 501 nM in each case.

Regarding `Cc1ccc(CC(=O)Nc2cc(-c3ccccc3-c3nnn(COP(=O)(O)O)n3)ccc2SC(C)(C)C)cc1` [Example 51, (5-(4′-(tert-Butylthio)-3′-(2-(p-tolyl)acetamido)-[1,1′-biphenyl]-2-yl)-2H-tetrazol-2-yl)methyl Dihydrogen Phosphate], the IC50 in assay [1] was 63.1 nM; in assay [2], 15.8 nM.

As for `Cc1ccc(CC(=O)Nc2cc(-c3ccccc3-c3nnnn3COP(=O)(O)O)ccc2SC(C)(C)C)cc1` [Example 52, (5-(4′-(tert-Butylthio)-3′-(2-(p-tolyl)acetamido)-[1,1′-biphenyl]-2-yl)-1H-tetrazol-1-yl)methyl Dihydrogen], the IC50 was 158 nM in assay [1] and 25.1 nM in assay [2].

As to `Cc1ccc(CC(=O)Nc2cc(-c3ccccc3-c3nnn(COC(=O)C(C)(C)C)n3)ccc2SC(C)(C)C)cc1` [Example 55, (5-(4′-(tert-Butylthio)-3′-(2-(p-tolyl)acetamido)-[1,1′-biphenyl]-2-yl)-2H-tetrazol-2-yl)methyl pivalate], the IC50 was 50.1 nM in assay [1] and 31.6 nM in assay [2].

As to `Cc1ccc(CC(=O)Nc2cc(-c3ccccc3-c3nnnn3COC(=O)C(C)(C)C)ccc2SC(C)(C)C)cc1` [Example 56, (5-(4′-(tert-butylthio)-3′-(2-(p-tolyl)acetamido)-[1,1′-biphenyl]-2-yl)-1H-tetrazol-1-yl)methyl Pivalate], the IC50 is 20 nM in assay [1] and 31.6 nM in assay [2].

With `Cc1ccc(CC(=O)Nc2cc(-c3ccccc3-c3nnn[nH]3)cnc2SC(C)(C)C)cc1` [Example 64, N-(5-(2-(1H-tetrazol-5-yl)phenyl)-2-(tert-butylthio)pyridin-3-yl)-2-(p-tolyl)acetamide], the values for the IC50 in assay [1] and in assay [2] were 50.1 nM and 63.1 nM, respectively.

Consider `CC(C)(C)Sc1ncc(-c2ccccc2-c2nnn[nH]2)cc1NC(=O)Cc1ccc(C(F)(F)F)cc1` [Example 65, N-(5-(2-(1H-tetrazol-5-yl)phenyl)-2-(tert-butylthio)pyridin-3-yl)-2-(4-(trifluoromethyl)phenyl)acetamide], for which the IC50 in assay [1] is 25.1 nM; in assay [2], 39.8 nM.
